# Data: patent US20220145304A1, “MODIFIED MICRORNAS AND THEIR USE IN THE TREATMENT OF CANCER” (The Research Foundation for The State University of New York, priority 2019, published 2022)
# Several values for one entry are separate records, joined by “and”; a condition that tells them apart may be missing. Equal values may be shown once. Entries after “also recorded” stand apart in the source; their conditions may differ.
# Assays:
# [1] = tested on: ASPC1 pancreatic cancer cells; assay: Cell viability assay (WST-1) in ASPC1 pancreatic cancer cells; assay type: cell-based, human; conditions: for IC50: WST-1 dye 6 days after treatment, calculated using CompuSyn
# Description: (§1) Cell culture. The human pancreatic cancer cell lines ASPC-1, HS766T, and Panc-1, were obtained from the American Type Culture Collection (ATCC) and maintained in various types of media. Specifically, HS766T and PANC1 cells were cultured in DMEM containing media, and APSC-1 cells were maintained in RPMI medium (Thermo Fischer). Media was supplemented with 10% fetal bovine serum (Thermo Fischer).
# (§2) Cell viability assay. Cells were plated 1000 cells per well in 96 well plates. Twenty four hours later cell media was changed to media supplemented with DFBS, with 50, 25, 12.5, 6.25, 3.125 or 1.5625 nM of Control miRNA (Thermo Fischer), miR-194, 5-FU-miR-194, Gem-mIR-194 or 5-FU-Gem-miR-194. 24 hours later media was changed again to fresh media supplemented with DFBS. 6 days after treatment cell number was assessed using WST-1 dye (Roche). Cells were incubated with 10 μl of WST-1 dye per 100 μl of media for 1 hour and absorbance was read at 450 and 630 nm. The optical density (O.D.) was calculated by subtracting the absorbance at 630 nm from that at 450 nm. IC^50 values were calculated using CompuSyn software (ComboSyn, Inc).
# [2] = tested on: PANC1 pancreatic cancer cells; assay: Cell viability assay (WST-1) in PANC1 pancreatic cancer cells; assay type: cell-based, human; conditions: for IC50: WST-1 dye 6 days after treatment, calculated using CompuSyn
# Description: as §1, §2
# [3] = tested on: HS766T pancreatic cancer cells; assay: Cell viability assay (WST-1) in HS766T pancreatic cancer cells; assay type: cell-based, human; conditions: for IC50: WST-1 dye 6 days after treatment, calculated using CompuSyn
# Description: as §1, §2
# SET8 = assay: Western immunoblot analysis of miR-194 target SET8 expression; assay type: cell-based, human; conditions: 50 nM
# Description: as §1
# (§3) Western immunoblot analysis. Twenty-four hours prior to transfection 1×10^5 cells were plated in 6 well plates. Cells were either transfected using Oligofectamine (Thermo Fischer) or no transfection vehicle, with 50 nM control miRNA (Thermo Fischer), miR-194 or one of the three miR-194 mimics. Three days following transfection protein was collected in RIPA buffer with protease inhibitor (Sigma). Equal amounts of protein (15 μg), were separated on 10% sodium dodecyl sulfate-polyacrylamide gels as described in Laemmli U K. Nature. 1970; 227(5259) pp. 680-685, the entire contents of which is incorporated herein by reference. Proteins were probed with anti-SET8 or BMI-1 (1:500) (Cell Signaling Technologies) and anti-GAPDH (1:100000) antibodies. Horseradish peroxidase conjugated antibodies against mouse or rabbit (1:5000, Santa Cruz Biotech Inc.) were used as the secondary antibodies. Protein bands were visualized with autoradiography film using SuperSignal West Pico Chemiluminescent Substrate (Thermo Fischer).
# BMI1 = assay: Western immunoblot analysis of miR-194 target BMI1 expression; assay type: cell-based, human; conditions: 50 nM
# Description: as §1, §3
# [4] = tested on: Luciferase-expressing HS766T cells; assay: Pancreatic cancer metastasis mouse model (tail vein injection, IVIS imaging); assay type: in vivo; conditions: 80 μg intravenous injection every other day for two weeks, started four days after establishing metastasis, versus negative control microRNA
# Description: (§4) Mouse subcutaneous tumor implantation model. For in vivo miRNA delivery experiments, pancreatic cancer cells were created that expressed the lenti-luc reporter gene by infecting parental pancreatic cancer cells with a recombinant lentivirus. Luciferase-expressing HS766T cells (2.0×10^6 cells per mouse) were suspended in 0.1 mL of PBS solution and was injected through tail vein of each mouse. Four days after injection of pancreatic cancer cells, mice were treated via tail vein injection with 80 μg of negative control or modified miR(s) packaged with in vivo-jet PEI (Polyplus Transfection). Mice were treated every other day for 2 weeks (8 times). Following treatment, mice were screened using IVIS Spectrum In vivo Imaging System (IVIS) (PerkinElmer).
# [5] = Toxicity in mice treated in the pancreatic cancer metastasis model; assay type: in vivo; conditions: mouse; 80 μg intravenous injection every other day for two weeks
# Description: as §4
# [6] = in the presence of a transfection agent (Oligofectamine), three days following transfection, FIG. 2A
# [7] = no transfection vehicle, three days, FIG. 2B
# [8] = in the presence of a transfection agent (Oligofectamine), three days following transfection, FIG. 2C
# [9] = no transfection vehicle, three days, FIG. 2D
Substance,IC50 [1],IC50 [2],IC50 [3],SET8 protein expression (Western blot) (SET8; [6]),SET8 protein expression (Western blot) (SET8; [7]),BMI1 protein expression (Western blot) (BMI1; [8]),BMI1 protein expression (Western blot) (BMI1; [9]),"pancreatic cancer cell viability (in words) ([1]; 1.5625-50 nM, FIG. 3A)","pancreatic cancer cell viability (in words) ([2]; 1.5625-50 nM, FIG. 3B)","pancreatic cancer cell viability (in words) ([3]; 1.5625-50 nM, FIG. 3C)",metastatic pancreatic cancer growth ([4]; FIG. 4),"metastatic pancreatic cancer growth ([4]; FIG. 4, listed as SEQ ID NO: 2)","metastatic pancreatic cancer growth ([4]; FIG. 4, listed as SEQ ID NOs: 2)",toxicity in treated mice [5]
"5-FU-miR-194 (NGNAACAGCAACNCCANGNGGA; 5-FU replacing U; fluorouracil modified miR-194 with a fluorouracil molecule at positions 1, 3, 13, 17 and 19; (1)..(1) N is Fluorouracil molecule; (3)..(3) N is Fluorouracil molecule; (13)..(13) N is Fluorouracil molecule; (17)..(17) N is Fluorouracil molecule; (19)..(19) N is Fluorouracil molecule)",6.06 nM,16 nM and 16.7 nM,26.4 nM,more potent than unmodified (control) miR-194,retain the ability to inhibit SET8,more potent than unmodified (control) miR-194,retain the ability to inhibit,–,–,–,–,–,–,–
"Gem-miR-194: modified miR-194, all 5 cytosine bases in the guide strand replaced by gemcitabine: UGUAANAGNAANUNNAUGUGGA [SEQ ID NO. 2], N is gemcitabine (cytosines replaced by gemcitabine, chemistry not fully specified)",4.29 nM,1.92 nM,3.57 nM,more potent than unmodified (control) miR-194; also recorded: inhibit SET8 and BMI1,retain the ability to inhibit SET8; also recorded: inhibit SET8 and BMI1,more potent than unmodified (control) miR-194; also recorded: inhibit SET8 and BMI1,retain the ability to inhibit; also recorded: inhibit SET8 and BMI1,reduce pancreatic cancer cell viability,reduce pancreatic cancer cell viability,reduce pancreatic cancer cell viability,able to inhibit metastatic pancreatic cancer growth compared to control,inhibiting tumor growth in vivo,able to inhibit metastatic pancreatic cancer growth compared to control,did not exhibit any toxicity
miR-194: unmodified (native) miR-194 sequence UGUAACAGCAACUCCAUGUGGA [SEQ ID NO. 1] (unmodified RNA; listed as Homo sapiens) [reference compound],–,–,–,–,–,–,unable to inhibit target expression,–,–,–,–,–,–,–
